Measurements: patent publication US20250206747A1, “COELENTERAZINE ANALOGUES” (priority 2023, published 2025)

Molecular target: NANOLUC® luciferase (Oplophorus gracilirostris, UniProt Q9GV45, A31E/A60N/A81I/F95D/I117V/K70R/L54V/L99Q/M102K/N193R/P142E/Q151K/Q38R/Q45L/V71I/Y165I)
Assay: Michaelis-Menten analysis of relative luminescence produced by NANOLUC luciferase at various concentrations of coelenterazine analogues
Format: biochemical
Settings: 0.01 nM NANOLUC luciferase

Sequence of NANOLUC® luciferase (Q9GV45 other isoform, or with tags, fused parts or gaps with the stated changes): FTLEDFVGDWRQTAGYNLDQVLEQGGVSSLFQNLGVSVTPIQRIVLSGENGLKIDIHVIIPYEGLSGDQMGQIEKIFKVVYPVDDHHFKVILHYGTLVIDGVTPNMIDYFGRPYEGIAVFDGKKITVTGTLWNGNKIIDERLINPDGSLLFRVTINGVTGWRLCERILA

| SMILES | Km (Table 1) [µM] | Km (Table 2) [µM] |
| --- | --- | --- |
| O=c1c(Cc2ccco2)nc2c(-c3cnnc(Cl)c3)[nH]c(-c3cccc(F)c3)cn1-2 [Compound 10299] | 0.15 | – |
| COc1cccc(-c2cn3c(=O)c(Cc4ccco4)nc-3c(-c3cnnc(Cl)c3)[nH]2)c1 [Compound 10300] | 0.27 | – |
| O=c1c(Cc2ccco2)nc2c(-c3cnnc(Cl)c3)[nH]c(-c3cccc(F)c3F)cn1-2 [Compound 10427, 8-(6-chloropyridazin-4-yl)-6-(2,3-difluorophenyl)-2-(furan-2-ylmethyl)imidazo[1,2-a]pyrazin-3(7H)-one] | – | 0.16 |
